Test results from ChEMBL document CHEMBL5532661, “Discovery of a Novel Glucagon-like Peptide-1 (GLP-1) Analogue from Bullfrog and Investigation of Its Potential for Designing GLP-1-Based Multiagonists” (J Med Chem, 2024).
Activity calls are given as the source filed them. No cut-off for these calls is given here. Numbered stars: 1 amine (or outer) side, 2 acyl side, 3 side chain; on linkers, the order of the positions; unused ones are H or OH. Square brackets hold non-standard residues; d marks the D form. Side chains are listed from the residue outwards. Peptide text beside a SMILES is read from it. * marks the point of attachment. C18 diacid = O=C(O)CCCCCCCCCCCCCCCCC(=O)*; γGlu = O=C(O)[C@H](CCC(=O)[*:2])N[*:1]; AEEA = NCCOCCOCC(=O)O; Aib = CC(C)(N)C(=O)O

Experiments:
[1] = molecular target: Glucagon receptor (Mus musculus) (UniProt Q61606); assay: Agonist activity at mouse GCGR receptor expressed in HEK293 cells assessed as cAMP level measured after 60 mins by HTRF based assay; assay type: functional, cell-based; conditions: filed as agonist
Sequence of Glucagon receptor (Mus musculus) (Q61606 whole entry): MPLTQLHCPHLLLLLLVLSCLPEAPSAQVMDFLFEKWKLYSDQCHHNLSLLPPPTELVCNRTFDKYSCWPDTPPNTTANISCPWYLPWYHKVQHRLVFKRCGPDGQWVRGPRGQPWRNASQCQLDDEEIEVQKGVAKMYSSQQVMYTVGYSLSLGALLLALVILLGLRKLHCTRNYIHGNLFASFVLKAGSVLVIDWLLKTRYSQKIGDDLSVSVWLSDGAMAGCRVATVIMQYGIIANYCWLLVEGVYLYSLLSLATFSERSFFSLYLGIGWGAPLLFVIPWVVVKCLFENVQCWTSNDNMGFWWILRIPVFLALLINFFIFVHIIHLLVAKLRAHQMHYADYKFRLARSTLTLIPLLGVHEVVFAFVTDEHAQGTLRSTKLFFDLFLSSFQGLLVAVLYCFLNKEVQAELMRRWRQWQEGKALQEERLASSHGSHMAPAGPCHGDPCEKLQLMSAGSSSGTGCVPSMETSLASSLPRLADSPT

Mus musculus [2] = assay: Antihyperglycemic effect in DIO mouse assessed as prolonged antihyperglycemic duration by measuring blood glucose at 100 nmol/kg, sc; assay type: functional, organism-based
[3] = molecular target: T1, Glucagon-like peptide 1 receptor (Mus musculus) (UniProt O35659); assay: Potency index, ratio of GLP-1 EC50 to test compound EC50 for agonist activity at mouse GLP-1 receptor expressed in HEK293 cells assessed as cAMP level measured after 60 mins by HTRF based assay; assay type: functional, cell-based; conditions: filed as agonist
T1 sequence (whole entry): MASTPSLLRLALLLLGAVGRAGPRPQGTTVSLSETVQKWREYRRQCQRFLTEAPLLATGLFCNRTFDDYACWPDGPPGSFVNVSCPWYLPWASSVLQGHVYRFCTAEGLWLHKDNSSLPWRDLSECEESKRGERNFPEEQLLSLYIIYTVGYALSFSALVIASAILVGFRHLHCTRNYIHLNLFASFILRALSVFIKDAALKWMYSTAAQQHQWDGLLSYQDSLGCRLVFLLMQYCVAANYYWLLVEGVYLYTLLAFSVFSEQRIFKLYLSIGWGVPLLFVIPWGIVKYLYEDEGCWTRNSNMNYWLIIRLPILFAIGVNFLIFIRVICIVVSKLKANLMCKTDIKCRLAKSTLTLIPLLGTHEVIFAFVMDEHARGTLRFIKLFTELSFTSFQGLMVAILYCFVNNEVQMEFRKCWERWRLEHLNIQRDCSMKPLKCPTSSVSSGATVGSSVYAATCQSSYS

Mus musculus [4] = assay: Hypoglycemic effect in ICR mouse treated with 3 g/kg glucose assessed as reduction in blood glucose level at 100 nmol/kg, sc measured upto 120 mins by acute glucose lowering test; assay type: functional, organism-based
[5] = molecular target: T1, Glucagon-like peptide 1 receptor (Mus musculus); assay: Agonist activity at mouse GLP-1 receptor expressed in HEK293 cells assessed as cAMP level measured after 60 mins by HTRF based assay; assay type: functional, cell-based; conditions: filed as agonist
[6] = molecular target: T2, Glucagon-like peptide 1 receptor (Homo sapiens, UniProt P43220); assay: Agonist activity at human GLP-1 receptor expressed in HEK293 cells assessed as cAMP level measured after 60 mins by HTRF based assay; assay type: functional, cell-based
T2 sequence (P43220 whole entry): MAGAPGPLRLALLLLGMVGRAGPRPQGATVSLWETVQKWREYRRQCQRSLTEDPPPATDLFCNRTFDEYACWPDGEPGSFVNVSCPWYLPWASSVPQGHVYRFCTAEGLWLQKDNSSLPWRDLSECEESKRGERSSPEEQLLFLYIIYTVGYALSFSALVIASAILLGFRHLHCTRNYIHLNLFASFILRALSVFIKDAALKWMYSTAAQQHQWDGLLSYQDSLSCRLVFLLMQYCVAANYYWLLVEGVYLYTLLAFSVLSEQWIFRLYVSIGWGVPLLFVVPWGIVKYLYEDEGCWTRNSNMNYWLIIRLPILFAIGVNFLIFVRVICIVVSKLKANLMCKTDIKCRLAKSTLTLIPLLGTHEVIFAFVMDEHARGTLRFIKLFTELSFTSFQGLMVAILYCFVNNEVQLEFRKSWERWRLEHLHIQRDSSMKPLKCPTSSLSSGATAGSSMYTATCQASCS

Mus musculus [7] = assay: Anorexigenic effect in ICR mouse assessed as decrease in food intake at 10 nmol/kg, sc measured upto 72 hrs by acute food intake study; assay type: functional, organism-based
Mus musculus [8] = assay: Reduction in blood glucose level in non-fasting DIO mouse at 30 nmol/kg, sc treated every 2 and half day once measured after 21 days by glucose tolerance test; assay type: functional, organism-based; conditions: time 21.0 day
Glucagon receptor [9] = molecular target: T3, Glucagon receptor (Homo sapiens, UniProt P47871); assay: Agonist activity at human GCGR expressed in HEK293 cells assessed as cAMP level measured after 60 mins by HTRF based assay; assay type: functional, cell-based
T3 sequence (P47871 whole entry): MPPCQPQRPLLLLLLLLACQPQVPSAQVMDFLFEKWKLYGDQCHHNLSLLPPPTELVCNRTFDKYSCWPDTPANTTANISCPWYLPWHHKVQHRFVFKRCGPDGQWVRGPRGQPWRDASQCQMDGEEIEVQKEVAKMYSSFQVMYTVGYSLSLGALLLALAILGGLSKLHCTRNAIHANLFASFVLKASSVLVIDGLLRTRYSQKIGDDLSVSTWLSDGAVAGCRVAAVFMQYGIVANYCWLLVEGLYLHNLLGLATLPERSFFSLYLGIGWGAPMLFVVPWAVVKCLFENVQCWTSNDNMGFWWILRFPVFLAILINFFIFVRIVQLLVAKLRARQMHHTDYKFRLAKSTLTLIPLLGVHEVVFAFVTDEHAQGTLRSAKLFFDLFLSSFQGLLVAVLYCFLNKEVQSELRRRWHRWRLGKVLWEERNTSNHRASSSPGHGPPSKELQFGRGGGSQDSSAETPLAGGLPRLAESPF

Mus musculus [10] = assay: Reduction in serum triglyceride in DIO mouse at 30 nmol/kg, sc treated every 2 and half day once measured after 21 days; assay type: functional, organism-based; conditions: time 21.0 day
Mus musculus [11] = assay: Hypoglycemic effect in ICR mouse treated with 3 g/kg glucose assessed as reduction in blood glucose level at 10 nmol/kg, sc measured upto 120 mins by acute glucose lowering test; assay type: functional, organism-based
Mus musculus [12] = assay: Reduction in serum AST in DIO mouse at 30 nmol/kg, sc treated every 2 and half day once measured after 21 days; assay type: functional, organism-based; conditions: time 21.0 day
Glucagon receptor [13] = molecular target: T3, Glucagon receptor; assay: Agonist activity at human GCGR expressed in HEK293 cells assessed as cAMP level by measuring relative percent (glucagon EC50/compound EC50) measured after 60 mins by HTRF based assay relative to glucagon; assay type: functional, cell-based; conditions: filed as agonist
Mus musculus [14] = assay: Reduction in serum ALT in DIO mouse at 30 nmol/kg, sc treated every 2 and half day once measured after 21 days; assay type: functional, organism-based; conditions: time 21.0 day
Mus musculus [15] = assay: Reduction in total cholesterol in DIO mouse at 30 nmol/kg, sc treated every 2 and half day once measured after 21 days; assay type: functional, organism-based; conditions: time 21.0 day
[16] = molecular target: Glucagon receptor (Mus musculus) (UniProt Q61606); assay: Potency index, ratio of glucagon EC50 to test compound EC50 for agonist activity at mouse GCGR expressed in HEK293 cells assessed as cAMP level measured after 60 mins by HTRF based assay; assay type: functional, cell-based; conditions: filed as agonist
[17] = molecular target: T2, Glucagon-like peptide 1 receptor; assay: Agonist activity at human GLP-1 receptor expressed in HEK293 cells assessed as cAMP level by measuring relative percent (GLP-1 EC50/compound EC50) measured after 60 mins by HTRF based assay relative to GLP-1; assay type: functional, cell-based; conditions: filed as agonist
Mus musculus [18] = assay: Reduction in total fat mass in DIO mouse at 30 nmol/kg, sc treated every 2 and half day once measured after 21 days; assay type: functional, organism-based; conditions: time 21.0 day
Mus musculus [19] = assay: Reduction in body weight in DIO mouse at 30 nmol/kg, sc treated every 2 and half day once measured after 21 days; assay type: functional; parameters: scale not given: the % may be the effect or the level left; conditions: time 21 day
Mus musculus [20] = assay: Reduction in feed intake in DIO mouse at 30 nmol/kg, sc treated twice a day measured after 21 days; assay type: functional, organism-based; conditions: time 21.0 day
[21] = molecular target: T4, Gastric inhibitory polypeptide receptor (Homo sapiens) (UniProt P48546); assay: Agonist activity at human GIPR receptor expressed in HEK293 cells assessed as cAMP level by measuring relative percent (GIP EC50/compound EC50) measured after 60 mins by HTRF based assay relative to GIP; assay type: functional, cell-based
T4 sequence (whole entry): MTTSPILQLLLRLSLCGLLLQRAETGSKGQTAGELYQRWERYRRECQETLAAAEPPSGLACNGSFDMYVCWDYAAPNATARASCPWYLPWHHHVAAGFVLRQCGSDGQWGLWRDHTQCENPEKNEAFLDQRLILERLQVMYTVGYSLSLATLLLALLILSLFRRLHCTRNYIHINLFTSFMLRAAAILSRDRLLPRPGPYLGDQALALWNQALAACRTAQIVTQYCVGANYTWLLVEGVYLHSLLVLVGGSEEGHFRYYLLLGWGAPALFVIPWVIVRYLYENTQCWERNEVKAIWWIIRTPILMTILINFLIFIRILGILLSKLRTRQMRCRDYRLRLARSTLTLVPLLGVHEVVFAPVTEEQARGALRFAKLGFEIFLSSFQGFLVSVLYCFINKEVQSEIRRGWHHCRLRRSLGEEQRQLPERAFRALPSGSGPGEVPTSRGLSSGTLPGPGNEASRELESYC

Mus musculus [22] = assay: Anorexigenic effect in sc dosed ICR mouse assessed as decrease in food intake measured upto 72 hrs by acute food intake study; assay type: functional, organism-based; conditions: dose 10-100 nmol/kg
Mus musculus [23] = assay: Antihyperglycemic effect in DIO mouse assessed as antihyperglycemic duration by measuring blood glucose at 30 nmol/kg, sc measured after 48 hrs by hypoglycemic duration assay; assay type: functional, organism-based
Mus musculus [24] = assay: Antihyperglycemic effect in DIO mouse assessed as antihyperglycemic duration by measuring blood glucose at 30 nmol/kg, sc administered twice daily measured by hypoglycemic duration assay; assay type: functional, organism-based
Mus musculus [25] = assay: Anorexigenic effect in ICR mouse assessed as decrease in food intake at 30 nmol/kg, sc measured upto 72 hrs by acute food intake study; assay type: functional, organism-based
[26] = molecular target: T5, Gastric inhibitory polypeptide receptor (Homo sapiens, UniProt P48546); assay: Agonist activity at human GIPR receptor expressed in HEK293 cells assessed as cAMP level measured after 60 mins by HTRF based assay; assay type: functional, cell-based
T5 sequence (P48546 whole entry): T4 sequence (whole entry)

Mus musculus [27] = assay: Reduction in hepatic lipid content in DIO mouse at 30 nmol/kg, sc treated every 2 and half day once measured after 21 days by H and E staining based assay; assay type: functional, organism-based; conditions: time 21.0 day
Mus musculus [28] = assay: Hypoglycemic effect in ICR mouse treated with 3 g/kg glucose assessed as reduction in blood glucose level at 30 nmol/kg, sc measured upto 120 mins pretreated with GLP-1R and GIPR antagonist by OGTT; assay type: functional, organism-based

## CC[C@H](C)[C@H](NC(=O)[C@H](CCCCNC(=O)COCCOCCNC(=O)COCCOCCNC(=O)CC[C@H](NC(=O)CCCCCCCCCCCCCCCCC(=O)O)C(=O)O)NC(=O)[C@H](CCC(=O)O)NC(=O)[C@H](CC(C)C)NC(=O)[C@H](C)NC(=O)[C@H](CCCNC(=N)N)NC(=O)[C@H](CO)NC(=O)[C@H](CCSC)NC(=O)[C@H](CC(=O)O)NC(=O)[C@H](CO)NC(=O)[C@@H](NC(=O)[C@H](Cc1ccccc1)NC(=O)[C@@H](NC(=O)CNC(=O)[C@H](CCC(N)=O)NC(=O)C(C)(C)NC(=O)[C@@H](N)Cc1c[nH]cn1)[C@@H](C)O)[C@@H](C)O)C(=O)N[C@@H](C)C(=O)N[C@@H](C)C(=O)N[C@@H](CCCNC(=N)N)C(=O)N[C@@H](CC(C)C)C(=O)N[C@@H](Cc1ccccc1)C(=O)N[C@H](C(=O)N[C@@H](CC(=O)O)C(=O)N[C@@H](Cc1c[nH]c2ccccc12)C(=O)N[C@@H](CC(C)C)C(=O)N[C@H](C(=O)N[C@@H](CCC(=O)O)C(=O)NCC(=O)NCC(=O)N1CCC[C@H]1C(=O)N[C@@H](CO)C(=O)N[C@@H](CO)C(=O)NCC(=O)N[C@@H](C)C(=O)N1CCC[C@H]1C(=O)N1CCC[C@H]1C(=O)N1CCC[C@H]1C(=O)N[C@@H](CO)C(N)=O)[C@@H](C)CC)C(C)C (H-H[Aib]QGTFTSDMSRALEK([AEEA-AEEA-γGlu-C18 diacid])IAARLFVDWLIEGGPSSGAPPPS-NH2)
[1]
  Activity: Active
Mus musculus [2]
  Activity: Active
[3]
  Ratio EC50: 1
Mus musculus [4]
  Activity: Active
[5]
  Activity: Active
[6]
  EC50: 0.012 nM
Mus musculus [7]
  Activity: Active
Mus musculus [8]
  Activity: Active
Glucagon receptor [9]
  EC50: 0.13 nM
Mus musculus [10]
  Activity: Active
Mus musculus [11]
  Activity: Active
Mus musculus [12]
  Activity: Active
Glucagon receptor [13]
  Activity: 71%
Mus musculus [14]
  Activity: Active
Mus musculus [15]
  Activity: Active
[16]
  Ratio EC50: 1
[17]
  Activity: 442%
Mus musculus [18]
  Activity: Active
Mus musculus [19]
  Activity: 40.7%
Mus musculus [20]
  Activity: Active
[21]
  Activity: 4%
Mus musculus [22]
  Activity: Dose-Dependent Effect
Mus musculus [23]
  Activity: Active
Mus musculus [24]
  Activity: Active
Mus musculus [25]
  Activity: Active
[26]
  EC50: 0.6 nM
Mus musculus [27]
  Activity: Active
Mus musculus [28]
  Activity: inactive
